Measurements: patent US20070167466A1, “"Pyrazolo [4,3-d]pyrimidines, processes for their preparation and methods of use"” (priority 2003, published 2007)
Read-outs that look alike come from different tables or passages of the source.

Columns and labels:
[1] = biological target: T1, CDK1 (p34^cdc2, cyclin B) (Homo sapiens, UniProt P06493); test: CDK inhibition assay, p34^cdc2 kinase, histone H1 phosphorylation; format: biochemical; details: 15 μM ATP, histone H1, 30° C.
T1 construct: made in house; host or cells: Sf9 insect cells (baculovirus co-infection)
T1 sequence (P06493 whole entry, species assumed): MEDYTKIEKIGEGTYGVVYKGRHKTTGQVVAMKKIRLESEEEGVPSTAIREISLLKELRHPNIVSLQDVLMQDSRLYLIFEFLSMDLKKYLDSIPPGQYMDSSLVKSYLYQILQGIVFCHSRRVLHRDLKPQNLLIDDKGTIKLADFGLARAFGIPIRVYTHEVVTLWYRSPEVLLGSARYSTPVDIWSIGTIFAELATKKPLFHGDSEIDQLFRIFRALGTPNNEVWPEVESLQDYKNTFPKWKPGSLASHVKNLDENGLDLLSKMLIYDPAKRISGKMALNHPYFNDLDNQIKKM
T1 sequence (P14635 whole entry partner, species assumed): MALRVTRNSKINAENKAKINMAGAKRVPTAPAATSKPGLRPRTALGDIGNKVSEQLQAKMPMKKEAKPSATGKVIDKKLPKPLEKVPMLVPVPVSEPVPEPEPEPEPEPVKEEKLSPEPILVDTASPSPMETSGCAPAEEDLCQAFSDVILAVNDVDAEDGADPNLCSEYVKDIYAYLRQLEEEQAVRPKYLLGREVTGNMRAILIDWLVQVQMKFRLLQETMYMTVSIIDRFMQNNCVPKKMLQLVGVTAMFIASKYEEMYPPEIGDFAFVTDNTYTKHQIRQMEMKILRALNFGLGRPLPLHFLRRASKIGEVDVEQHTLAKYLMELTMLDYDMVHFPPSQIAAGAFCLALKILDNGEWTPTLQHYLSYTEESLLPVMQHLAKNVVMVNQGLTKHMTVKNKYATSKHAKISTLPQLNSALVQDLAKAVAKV
Experimental: The controls contain suitable dilutions of DMSO.
2-glycerolphosphate, 1 mM NaF, 1 mM DTT

[2] = tested on: K562 (human chronic myeloblastic leukemia); test: In vitro cytotoxic activity, Calcein AM, three days; format: cell-based; details: read-out: K-562 IC50
Experimental: (§1) We have been using the following cell lines: HELA (human cervical carcinoma), MCF7 (human breast adenocarcinoma), NIH 3T3 (mouse fibroblasts), HOS (human osteogenic sarcoma), HL 60 (human promyelocytic leukemia), G 361 (human malignant melanoma), K562 (human chronic myeloblastic leukemia), CEM (human lymphoblastoid leukaemia). Tested drugs were added to the cell cultures in six different concentration and kept at 37° C. and 5% CO2 for three days. All cell lines were grown in DMBM medium (Gibco BRL) supplemented with 10% (v/v) fetal bovine serum and L-glutamine and maintained at 37° C. in a humidified atmosphere with 5% CO2. 10^4 cells were seeded into each well of 96 well plate, allowed to stabilize for at least 2 h and then tested compounds were added at various concentrations ranging from 200 to 0.2 μM in triplicates. Three days after drug addition Calcein AM solution (Molecular Probes) was added and let to enter the cells for 1 hour. Fluorescence of viable cells was quantified employing Fluoroskan Ascent (Microsystems).

[3] = tested on: MCF7 (human breast adenocarcinoma); test: as above; format: cell-based
Experimental: as §1

[4] = biological target: CDK2 (p33^cdk2, cyclin E) (Homo sapiens, UniProt P24941); test: CDK inhibition assay, p33^cdk2 kinase, histone H1 phosphorylation;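 note: Baculovirus-expressed kinase/cyclin complex from Sf9 cell extract, 10 min at 30 °C, phosphoproteins separated by SDS gel and quantified by image analysis, activity relative to DMSO control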
Experimental: Cyclin-dependent kinases (p34^cdc2, p33^cdk2) and cyclins (cyclin B, E) are produced in Sf9 insect cells coinfected with appropriate baculoviral constructs. The cells are harvested 68-72 hrs post infection in lysis buffer for 30 min on ice and the soluble fraction is recovered by centrifugation at 14.000 g for 10 min. The protein extract is stored at −80° C.
Lysis buffer: 50mM Tris pH 7.4, 150mM NaCl, 5 mM EDTA, 20 mM NaF, 1% Tween, 1 mM DTT, 0.1 mM PMSF, leupeptine, aprotonine.
To carry out experiments on kinetics under linear conditions, the final point test system for kinase activity measurement is used. The kinase is added to reaction mixture in such a way as to obtain linear activity with respect to the concentration of enzyme and with respect to time.
Kinase activity is determined at 30° C. in the kinase buffer.
Tested compounds are usually dissolved to 100 mM solutions in DMSO, final concentration of DMSO in reaction mixture never exceeds 1%. The controls contain suitable dilutions of DMSO.
After 10 min, addition 3×SDS sample buffer stops the incubations. Phosphorylated proteins are separated electrophoretically using 10% SDS polyacrylamide gel. The measurement of kinase activity is done using digital image analysis.
The kinase activity is expressed as a percentage of maximum activity, the apparent inhibition constants are determined by graphic analysis.
Kinase buffer: 50 mM Hepes pH 7.4, 10 mM MgCl2, 5 mM EGTA, 10 mM

Compound | IC50 [1] [µM] | IC50 [4] [µM] | IC50 ([2]; Homo sapiens, K562, 72 h) [µM] | IC50 ([3]; Homo sapiens, MCF7, 72 h) [µM] | IC50 [2] [µM] | IC50 [3] [µM]
Cc1n[nH]c2c(NCc3ccccc3Br)ncnc12 [2-bromobenzylamino / methyl] |  |  |  |  | 68 | 56
COc1ccc(CNc2ncnc3c(C)n[nH]c23)cc1 [4-methoxybenzylamino / methyl] |  |  |  |  | 53 | 35
Cc1n[nH]c2c(Nc3ccc(C(=O)O)c(Cl)c3)ncnc12 [3-chloro-4-carboxyanilino / methyl] | 25 | 28 |  |  |  | 
COc1cccc(CNc2ncnc3c(C(C)C)n[nH]c23)c1O |  |  |  |  | 0.8 | 0.6
Cc1n[nH]c2c(Nc3ccc(Br)cc3)ncnc12 [4-bromoanilino / methyl] | 16 | 18 |  |  |  | 
C=CCNc1ncnc2c(CC)n[nH]c12 [allylamino / ethyl] | 25 | 29 |  |  |  | 
CCc1n[nH]c2c(NCc3ccc(OC)c(O)c3)ncnc12 [3-hydroxy-4-methoxybenzylamino / ethyl] |  |  |  |  | 72 | 52
Cc1n[nH]c2c(Nc3ccc(Cl)c(N)c3)ncnc12 [3-amino-4-chloroanilino / methyl] | 27 | 28 |  |  |  | 
Cc1n[nH]c2c(NC3CCCCC3)ncnc12 [cyclohexylamino / methyl] | 34 | 32 |  |  |  | 
CCc1n[nH]c2c(Nc3ccc(C(=O)O)c(Cl)c3)ncnc12 [3-chloro-4-carboxyanilino / ethyl] | 36 | 32 |  |  |  | 
C=CCNc1ncnc2c(C)n[nH]c12 [allylamino / methyl] | 42 | 48 |  |  |  | 
CC(C)=CCNc1ncnc2c(C)n[nH]c12 [isopentenylamino / methyl] | 45 | 44 |  |  |  | 
Cc1n[nH]c2c(NC3CCC(N)CC3)ncnc12 (stereo not shown) [4-aminocyclohexylamino / methyl] |  |  |  |  | 115 | 75
CCc1n[nH]c2c(Nc3cc(N)cc(Cl)c3)ncnc12 [3-chloro-5-aminoanilino / ethyl] | 20 | 15.5 |  |  |  | 
CCc1n[nH]c2c(NCC=C(C)C)ncnc12 [isopentenylamino / ethyl] | 45 | 41 |  |  |  | 
Cc1n[nH]c2c(NCc3ccc(O)cc3)ncnc12 [4-hydroxybenzylamino / methyl] |  |  |  |  | > 167 | > 167
Cc1n[nH]c2c(NCc3ccccc3)ncnc12 [benzylamino / methyl] |  |  |  |  | 29 | 67

Compound | IC50 [1] [µM] | IC50 [4] [µM] | IC50 ([2]; Homo sapiens, K562, 72 h) [µM] | IC50 ([3]; Homo sapiens, MCF7, 72 h) [µM] | IC50 [2] [µM] | IC50 [3] [µM]
CCCCCNc1ncnc2c(CC)n[nH]c12 [pentylamino / ethyl] |  |  |  |  | 62 | 41
COc1ccc(CNc2ncnc3c(C(C)C)n[nH]c23)c(O)c1 |  |  |  |  | 0.5 | 0.2
CC(C)c1n[nH]c2c(NCc3ccccc3N)ncnc12 [2-aminobenzylamino / isopropyl] |  |  |  |  | 2.1 | 0.8
Cc1n[nH]c2c(NC3CCC3)ncnc12 [cyclobutylamino / methyl] | 35 | 28 | 101 | 89 |  | 
Cc1n[nH]c2c(Nc3cc(N)cc(Cl)c3)ncnc12 [3-chloro-5-aminoanilino / methyl] | 19 | 24 |  |  |  | 
CCCCCNc1ncnc2c(C)n[nH]c12 [pentylamino / methyl] |  |  |  |  | 67 | 45
CCc1n[nH]c2c(Nc3ccc(N)c(Cl)c3)ncnc12 [3-chloro-4-aminoanilino / ethyl] | 35 | 28 |  |  |  | 
CCc1n[nH]c2c(NCc3ccc(OC)cc3)ncnc12 [4-methoxybenzylamino / ethyl] |  |  |  |  | 48 | 31
CCc1n[nH]c2c(NCc3ccccc3Br)ncnc12 [2-bromobenzylamino / ethyl] |  |  |  |  | 60 | 54
COc1ccc(CNc2ncnc3c(C)n[nH]c23)cc1O [3-hydroxy-4-methoxybenzylamino / methyl] |  |  |  |  | 79 | 58
CCc1n[nH]c2c(NC3CCC(N)CC3)ncnc12 (stereo not shown) [4-aminocyclohexylamino / ethyl] |  |  |  |  | 110 | 71
CCc1n[nH]c2c(NC3CCCC3)ncnc12 [cyclopentylamino / ethyl] | 32 | 32 |  |  |  | 
Cc1n[nH]c2c(NC3CCCC3)ncnc12 [cyclopentylamino / methyl] | 29 | 46 |  |  |  | 
CCc1n[nH]c2c(NC3CCCCC3)ncnc12 [cyclohexylamino / ethyl] | 39 | 42 |  |  |  | 
COc1ccc(O)c(CNc2ncnc3c(C(C)C)n[nH]c23)c1 |  |  |  |  | 1.2 | 0.9
CCc1n[nH]c2c(Nc3ccc(Cl)c(N)c3)ncnc12 [3-amino-4-chloroanilino / ethyl] | 23 | 22 |  |  |  | 

Now from value to compound, other results behind:

IC50 [1] [µM] | IC50 [4] [µM] | Compound | IC50 ([2]; Homo sapiens, K562, 72 h) [µM] | IC50 ([3]; Homo sapiens, MCF7, 72 h) [µM] | IC50 [2] [µM] | IC50 [3] [µM]
3.1 | 4.2 | CC(C)c1n[nH]c2c(Nc3ccc(O)c(C(=O)O)c3)ncnc12 [3-carboxy-4-hydroxyanilino / isopropyl] | 25 | 12 |  | 
18 | 17 | CCc1n[nH]c2c(NCc3cccc(C)c3)ncnc12 [3-methylbenzylamino / ethyl] |  |  |  | 
26 | 19 | CCc1n[nH]c2c(NCc3ccc(Cl)cc3)ncnc12 [4-chlorobenzylamino / ethyl] |  |  |  | 
12 | 11 | CCc1n[nH]c2c(NCc3ccccc3)ncnc12 [benzylamino / ethyl] | 81 | 62 |  | 
18 | 17 | Cc1ccccc1CNc1ncnc2c(C)n[nH]c12 [2-methylbenzylamino / methyl] |  |  |  | 
2.9 | 3 | CC(C)c1n[nH]c2c(Nc3ccc(N)c(Cl)c3)ncnc12 [3-chloro-4-aminoanilino / isopropyl] | 13 | 12 |  | 
2.9 | 3 | CC(C)c1n[nH]c2c(Nc3ccc(Cl)c(N)c3)ncnc12 [3-amino-4-chloroanilino / isopropyl] | 0.3 | 0.2 |  | 
0.4 | 0.27 | CC(C)c1n[nH]c2c(NCc3ccccc3O)ncnc12 [2-hydroxybenzylamino / isopropyl, 7-(2-hydroxybenzyl)amino-3-isopropylpyrazolo[4,3-d]pyrimidine] | 50 | 63 |  | 
20 | 18 | Cc1n[nH]c2c(NCc3ccc(Cl)cc3)ncnc12 [4-chlorobenzylamino / methyl] |  |  |  | 
2.5 | 2.8 | CC(C)c1n[nH]c2c(Nc3ccc(C(=O)O)c(Cl)c3)ncnc12 [3-chloro-4-carboxyanilino / isopropyl] | 69 | 46 |  | 
24 | 18 | CCc1n[nH]c2c(Nc3cccc(Cl)c3)ncnc12 [3-chloroanilino / ethyl] | 28 | 19 |  | 
22 | 18 | CCc1n[nH]c2c(Nc3ccc(Br)cc3)ncnc12 [4-bromoanilino / ethyl] |  |  |  | 
1.7 | 1.9 | CC(C)c1n[nH]c2c(Nc3ccc(Br)cc3)ncnc12 [4-bromoanilino / isopropyl] | 7 | 5 |  | 
12 | 12 | CCc1n[nH]c2c(NCc3ccccc3Cl)ncnc12 [2-chlorobenzylamino / ethyl] |  |  |  | 
26 | 28 | Cc1n[nH]c2c(Nc3ccc(Cl)cc3)ncnc12 [4-chloroanilino / methyl] |  |  |  | 
28 | 31 | Cc1cccc(CNc2ncnc3c(C)n[nH]c23)c1 [3-methylbenzylamino / methyl] |  |  |  | 
22 | 21 | Cc1n[nH]c2c(Nc3ccccc3)ncnc12 [anilino / methyl] |  |  |  | 
8.8 | 9.4 | Cc1n[nH]c2c(NCc3cccc(Cl)c3)ncnc12 [3-chlorobenzylamino / methyl] |  |  |  | 
9.7 | 10.2 | CCc1n[nH]c2c(NCc3cccc(Cl)c3)ncnc12 [3-chlorobenzylamino / ethyl] |  |  |  | 
15 | 14 | CCc1n[nH]c2c(NCc3ccccc3C)ncnc12 [2-methylbenzylamino / ethyl] |  |  |  | 
14 | 16 | CCc1n[nH]c2c(Nc3ccc(Cl)cc3)ncnc12 [4-chloroanilino / ethyl] |  |  |  | 
34 | 40 | Cc1n[nH]c2c(Nc3ccc(O)c(C(=O)O)c3)ncnc12 [3-carboxy-4-hydroxyanilino / methyl] |  |  |  | 
24 | 22 | CCc1n[nH]c2c(Nc3ccc(O)c(C(=O)O)c3)ncnc12 [3-carboxy-4-hydroxyanilino / ethyl] |  |  |  | 
38 | 40 | CCc1n[nH]c2c(Nc3ccc(Cl)c(C(=O)O)c3)ncnc12 [3-carboxy-4-chloroanilino / ethyl] |  |  |  | 
14 | 20 | CCc1n[nH]c2c(Nc3ccccc3)ncnc12 [anilino / ethyl] |  |  |  | 
24 | 29 | Cc1n[nH]c2c(Nc3ccc(Cl)c(C(=O)O)c3)ncnc12 [3-carboxy-4-chloroanilino / methyl] |  |  |  | 
